Reference: US20250082614A1, “METHODS OF USING RAD51 INHIBITORS FOR TREATMENT OF PANCREATIC CANCER” (Cyteir Therapeutics, Inc., priority 2019, published 2025)

Tests used:
[1] = system: ARPE19/HPV16 (HPV Immortalized RPE); test: Cell line screen, potency assay; assay type: cell-based; conditions: ARPE-19, AICDA expression Negative
Experimental: Percent cell death and EC50 values were calculated by comparing the cell viability of the compound treated wells to the non-treated wells. Normalized RLU values were obtained by subtracting the media well values from each of the wells in the same column, and then dividing that value by the DMSO treated cells values. The percent kill was then calculated by subtracting the normalized RLU value from 1 and multiplying by 100. The average normalized percent kill value and standard error of the mean was then calculated. The kill values were then inputted into Prism with the corresponding standard errors. In Prism a non-linear regression line was plotted with the data points using a semi-log scale, and the EC50 value was calculated.
The activity of the claimed compounds was measured in a variety of cell lines with different expression levels of activation induced cytidine deaminase (AICDA). The potency assay was repeated in all of the listed cell lines and the EC50 values recorded.

[2] = Pharmacokinetic (PK) study, plasma by LC-MS; assay type: in vivo, rat; conditions: po @ 80 mg/kg
Experimental: PK studies in mice were used to determine the fate of the compounds in a whole organism. Rats were treated with the compounds either orally of via IV at the indicated doses and followed for up to 24 hours. Plasma samples were taken at different time points and analyzed by LC-MS.

[3] = Human liver microsome stability; assay type: in vitro ADME; conditions: human liver microsomes
Experimental: The stability of the claimed compounds was determined in the presences of human liver microsomes. The compounds were incubated with the microsomes at 37° C. for 45 minutes. Samples were analyzed using LC-MS/MS. Data analysis included half-life, clearance rate, and the percentage of hepatic blood flow […] for each of the compounds in the different species.

Structure (SMILES): CC(C)OC(=O)Nc1ccc(-c2cnc([C@H]3CC[C@H](NC(=O)OC(C)C)CC3)s2)c(S(=O)(=O)NC(C)(C)C)c1 [Ex. 67A, trans-isopropyl N-[3-(tert-butylsulfamoyl)-4-[2-[4-(isopropoxycarbonylamino)cyclohexyl]thiazol-5-yl]phenyl]carbamate]
- EC50 [1]: > 10 µM
- F (%) @ 5 mg/kg ([2]; Rat Female): 86.5%
- F (%) @ 5 mg/kg ([2]; Rat Male): 46.9%
- % QH (percentage of hepatic blood flow) [3]: <20.3%
